Experimental data from the supplement of paper PMC10307832.

Key:
Assay in all cases: relative viability (nuclei count vs DMSO), 5 days (fraction); higher = more cells survive
COR-L 105 = tested on: COR-L 105
Method in brief: (§1)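 After 5 days of treatment, lung cancer cells in 1536-well plates were fixed and stained in a single step (final 0.05% Triton X-100, 1% formaldehyde, 1 ug/ml Hoechst) and their nuclei counted on 4× images. Treatment had been applied by pin tool the day after seeding as one drug alone or as a fixed anchor-drug dose with five library-drug doses (not always all listed) in √10 steps. Relative viability is the nuclei count of treated wells divided by that of vehicle wells, and values are medians of duplicate plates.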

COR-L23 = tested on: COR-L23
Method in brief: as §1

HARA = tested on: HARA
Method in brief: as §1

HCC-15 = tested on: HCC-15
Method in brief: as §1

HOP-62 = tested on: HOP-62
Method in brief: as §1

NCI-H1355 = tested on: NCI-H1355
Method in brief: as §1

NCI-H1395 = tested on: NCI-H1395
Method in brief: as §1

NCI-H1734 = tested on: NCI-H1734
Method in brief: as §1

NCI-H1755 = tested on: NCI-H1755
Method in brief: as §1

NCI-H1792 = tested on: NCI-H1792
Method in brief: as §1

NCI-H1793 = tested on: NCI-H1793
Method in brief: as §1

NCI-H1993 = tested on: NCI-H1993
Method in brief: as §1

NCI-H2009 = tested on: NCI-H2009
Method in brief: as §1

NCI-H2170 = tested on: NCI-H2170
Method in brief: as §1

NCI-H2228 = tested on: NCI-H2228
Method in brief: as §1

NCI-H2347 = tested on: NCI-H2347
Method in brief: as §1

NCI-H358 = tested on: NCI-H358
Method in brief: as §1

NCI-H522 = tested on: NCI-H522
Method in brief: as §1

NCI-H647 = tested on: NCI-H647
Method in brief: as §1

NCI-H838 = tested on: NCI-H838
Method in brief: as §1

SK-MES-1 = tested on: SK-MES-1
Method in brief: as §1

UMC-11 = tested on: UMC-11
Method in brief: as §1

SMILES: Nc1ccn([C@@H]2O[C@H](CO)[C@@H](O)[C@@H]2O)c(=O)n1 [Cytarabine] + Cc1nc(Nc2ncc(C(=O)Nc3c(C)cccc3Cl)s2)cc(N2CCN(CCO)CC2)n1 [Dasatinib] (partner 0.075 µM)
- relative viability (COR-L 105; first compound 0.005 µM): 0.314
- relative viability (COR-L 105; first compound 0.01581 µM): 0.311
- relative viability (COR-L 105; first compound 0.05 µM): 0.293
- relative viability (COR-L 105; first compound 0.1581 µM): 0.196
- relative viability (COR-L 105; first compound 0.5 µM): 0.187
- relative viability (COR-L23; first compound 0.005 µM): 0.405
- relative viability (COR-L23; first compound 0.01581 µM): 0.312
- relative viability (COR-L23; first compound 0.05 µM): 0.287
- relative viability (COR-L23; first compound 0.1581 µM): 0.17
- relative viability (COR-L23; first compound 0.5 µM): 0.14
- relative viability (HARA; first compound 0.005 µM): 0.309
- relative viability (HARA; first compound 0.01581 µM): 0.222
- relative viability (HARA; first compound 0.05 µM): 0.227
- relative viability (HARA; first compound 0.1581 µM): 0.0854
- relative viability (HARA; first compound 0.5 µM): 0.0721
- relative viability (HCC-15; first compound 0.005 µM): 0.559
- relative viability (HCC-15; first compound 0.01581 µM): 0.679
- relative viability (HCC-15; first compound 0.05 µM): 0.683
- relative viability (HCC-15; first compound 0.1581 µM): 0.479
- relative viability (HCC-15; first compound 0.5 µM): 0.401
- relative viability (HOP-62; first compound 0.005 µM): 0.58
- relative viability (HOP-62; first compound 0.01581 µM): 0.531
- relative viability (HOP-62; first compound 0.05 µM): 0.421
- relative viability (HOP-62; first compound 0.1581 µM): 0.157
- relative viability (HOP-62; first compound 0.5 µM): 0.11
- relative viability (NCI-H1355; first compound 0.005 µM): 0.641
- relative viability (NCI-H1355; first compound 0.01581 µM): 0.672
- relative viability (NCI-H1355; first compound 0.05 µM): 0.486
- relative viability (NCI-H1355; first compound 0.1581 µM): 0.352
- relative viability (NCI-H1355; first compound 0.5 µM): 0.369
- relative viability (NCI-H1395; first compound 0.005 µM): 0.385
- relative viability (NCI-H1395; first compound 0.01581 µM): 0.34
- relative viability (NCI-H1395; first compound 0.05 µM): 0.374
- relative viability (NCI-H1395; first compound 0.1581 µM): 0.319
- relative viability (NCI-H1395; first compound 0.5 µM): 0.282
- relative viability (NCI-H1734; first compound 0.005 µM): 0.419
- relative viability (NCI-H1734; first compound 0.01581 µM): 0.221
- relative viability (NCI-H1734; first compound 0.05 µM): 0.218
- relative viability (NCI-H1734; first compound 0.1581 µM): 0.125
- relative viability (NCI-H1734; first compound 0.5 µM): 0.113
- relative viability (NCI-H1755; first compound 0.005 µM): 0.439
- relative viability (NCI-H1755; first compound 0.01581 µM): 0.316
- relative viability (NCI-H1755; first compound 0.05 µM): 0.372
- relative viability (NCI-H1755; first compound 0.1581 µM): 0.257
- relative viability (NCI-H1755; first compound 0.5 µM): 0.222
- relative viability (NCI-H1792; first compound 0.005 µM): 1.34
- relative viability (NCI-H1792; first compound 0.01581 µM): 0.657
- relative viability (NCI-H1792; first compound 0.05 µM): 0.603
- relative viability (NCI-H1792; first compound 0.1581 µM): 0.503
- relative viability (NCI-H1792; first compound 0.5 µM): 0.355
- relative viability (NCI-H1793; first compound 0.005 µM): 0.364
- relative viability (NCI-H1793; first compound 0.01581 µM): 0.37
- relative viability (NCI-H1793; first compound 0.05 µM): 0.387
- relative viability (NCI-H1793; first compound 0.1581 µM): 0.257
- relative viability (NCI-H1793; first compound 0.5 µM): 0.191
- relative viability (NCI-H1993; first compound 0.005 µM): 0.74
- relative viability (NCI-H1993; first compound 0.01581 µM): 0.58
- relative viability (NCI-H1993; first compound 0.05 µM): 0.523
- relative viability (NCI-H1993; first compound 0.1581 µM): 0.49
- relative viability (NCI-H1993; first compound 0.5 µM): 0.425
- relative viability (NCI-H2009; first compound 0.005 µM): 0.304
- relative viability (NCI-H2009; first compound 0.01581 µM): 0.275
- relative viability (NCI-H2009; first compound 0.05 µM): 0.295
- relative viability (NCI-H2009; first compound 0.1581 µM): 0.192
- relative viability (NCI-H2009; first compound 0.5 µM): 0.146
- relative viability (NCI-H2170; first compound 0.005 µM): 0.576
- relative viability (NCI-H2170; first compound 0.01581 µM): 0.589
- relative viability (NCI-H2170; first compound 0.05 µM): 0.533
- relative viability (NCI-H2170; first compound 0.1581 µM): 0.244
- relative viability (NCI-H2170; first compound 0.5 µM): 0.241
- relative viability (NCI-H2228; first compound 0.005 µM): 0.299
- relative viability (NCI-H2228; first compound 0.01581 µM): 0.158
- relative viability (NCI-H2228; first compound 0.05 µM): 0.159
- relative viability (NCI-H2228; first compound 0.1581 µM): 0.0724
- relative viability (NCI-H2228; first compound 0.5 µM): 0.0511
- relative viability (NCI-H2347; first compound 0.005 µM): 0.321
- relative viability (NCI-H2347; first compound 0.01581 µM): 0.307
- relative viability (NCI-H2347; first compound 0.05 µM): 0.241
- relative viability (NCI-H2347; first compound 0.1581 µM): 0.274
- relative viability (NCI-H2347; first compound 0.5 µM): 0.201
- relative viability (NCI-H358; first compound 0.005 µM): 0.206
- relative viability (NCI-H358; first compound 0.01581 µM): 0.167
- relative viability (NCI-H358; first compound 0.05 µM): 0.131
- relative viability (NCI-H358; first compound 0.1581 µM): 0.0707
- relative viability (NCI-H358; first compound 0.5 µM): 0.0702
- relative viability (NCI-H522; first compound 0.005 µM): 0.935
- relative viability (NCI-H522; first compound 0.01581 µM): 0.802
- relative viability (NCI-H522; first compound 0.05 µM): 0.769
- relative viability (NCI-H522; first compound 0.1581 µM): 0.562
- relative viability (NCI-H522; first compound 0.5 µM): 0.55
- relative viability (NCI-H647; first compound 0.005 µM): 0.104
- relative viability (NCI-H647; first compound 0.01581 µM): 0.0553
- relative viability (NCI-H647; first compound 0.05 µM): 0.0872
- relative viability (NCI-H647; first compound 0.1581 µM): 0.0307
- relative viability (NCI-H647; first compound 0.5 µM): 0.0339
- relative viability (NCI-H838; first compound 0.005 µM): 0.281
- relative viability (NCI-H838; first compound 0.01581 µM): 0.274
- relative viability (NCI-H838; first compound 0.05 µM): 0.229
- relative viability (NCI-H838; first compound 0.1581 µM): 0.214
- relative viability (NCI-H838; first compound 0.5 µM): 0.164
- relative viability (SK-MES-1; first compound 0.005 µM): 0.213
- relative viability (SK-MES-1; first compound 0.01581 µM): 0.174
- relative viability (SK-MES-1; first compound 0.05 µM): 0.127
- relative viability (SK-MES-1; first compound 0.1581 µM): 0.117
- relative viability (SK-MES-1; first compound 0.5 µM): 0.113
- relative viability (UMC-11; first compound 0.005 µM): 0.279
- relative viability (UMC-11; first compound 0.01581 µM): 0.298
- relative viability (UMC-11; first compound 0.05 µM): 0.379
- relative viability (UMC-11; first compound 0.1581 µM): 0.2
- relative viability (UMC-11; first compound 0.5 µM): 0.169
